In assay [1] the target is T1, Histamine H3 receptor (Cavia porcellus, UniProt Q9JI35). Description: Displacement of [3H]N-alpha-methylhistamine from histamine H3 receptor in guinea pig brain.
For assay [2], the target named is T1, Histamine H3 receptor. The experiment in a line: Antagonist potency against histamine H3 receptor in an electrically stimulated guinea pig ileum. The format is functional, tissue-based. The following applies: read-out: pA2 (converted).
The target in assay [3] is Histamine H3 receptor (Homo sapiens, UniProt Q9Y5N1). The experiment in a line: Displacement of [3H]N-alpha-methylhistamine from histamine H3 receptor in human brain.
Chain of Histamine H3 receptor (Homo sapiens, UniProt Q9Y5N1) (Q9Y5N1 whole entry): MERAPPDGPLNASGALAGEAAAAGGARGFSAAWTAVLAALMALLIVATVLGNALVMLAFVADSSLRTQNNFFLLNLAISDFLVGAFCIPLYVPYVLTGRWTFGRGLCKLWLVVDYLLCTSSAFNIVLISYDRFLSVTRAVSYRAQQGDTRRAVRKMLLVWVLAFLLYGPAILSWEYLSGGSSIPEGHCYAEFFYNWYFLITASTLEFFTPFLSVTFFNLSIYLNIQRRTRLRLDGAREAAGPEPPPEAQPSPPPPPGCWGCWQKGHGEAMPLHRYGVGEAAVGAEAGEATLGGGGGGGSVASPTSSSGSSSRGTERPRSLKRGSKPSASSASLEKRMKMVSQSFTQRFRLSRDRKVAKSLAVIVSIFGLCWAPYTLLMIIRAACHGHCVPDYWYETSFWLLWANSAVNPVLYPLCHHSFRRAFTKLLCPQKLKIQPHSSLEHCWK
The target of assay [4] is Cytochrome P450 2D6 (Homo sapiens, UniProt P10635). The experiment in a line: Inhibition of CYP2D6 in human liver microsomes. The format is ADME, Microsome.
Chain of Cytochrome P450 2D6 (P10635 whole entry): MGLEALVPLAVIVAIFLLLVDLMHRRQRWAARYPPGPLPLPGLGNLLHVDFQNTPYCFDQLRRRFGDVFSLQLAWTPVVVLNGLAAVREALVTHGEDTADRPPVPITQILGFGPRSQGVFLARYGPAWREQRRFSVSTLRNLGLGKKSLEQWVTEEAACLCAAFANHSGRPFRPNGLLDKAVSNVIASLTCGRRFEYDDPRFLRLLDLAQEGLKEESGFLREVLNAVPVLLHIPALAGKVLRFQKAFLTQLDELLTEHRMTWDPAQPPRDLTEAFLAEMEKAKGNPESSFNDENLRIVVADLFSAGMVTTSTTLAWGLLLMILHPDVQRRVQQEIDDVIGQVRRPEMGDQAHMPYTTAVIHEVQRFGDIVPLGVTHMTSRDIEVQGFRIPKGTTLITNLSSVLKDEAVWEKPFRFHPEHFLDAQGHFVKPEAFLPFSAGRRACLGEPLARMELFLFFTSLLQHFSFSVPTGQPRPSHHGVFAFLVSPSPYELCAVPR
In assay [5] the target is Histamine H1 receptor (Cavia porcellus, UniProt P31389). The experiment in a line: Displacement of [3H]N-alpha-methylhistamine from histamine H1 receptor in guinea pig brain.
Chain of Histamine H1 receptor (P31389 whole entry): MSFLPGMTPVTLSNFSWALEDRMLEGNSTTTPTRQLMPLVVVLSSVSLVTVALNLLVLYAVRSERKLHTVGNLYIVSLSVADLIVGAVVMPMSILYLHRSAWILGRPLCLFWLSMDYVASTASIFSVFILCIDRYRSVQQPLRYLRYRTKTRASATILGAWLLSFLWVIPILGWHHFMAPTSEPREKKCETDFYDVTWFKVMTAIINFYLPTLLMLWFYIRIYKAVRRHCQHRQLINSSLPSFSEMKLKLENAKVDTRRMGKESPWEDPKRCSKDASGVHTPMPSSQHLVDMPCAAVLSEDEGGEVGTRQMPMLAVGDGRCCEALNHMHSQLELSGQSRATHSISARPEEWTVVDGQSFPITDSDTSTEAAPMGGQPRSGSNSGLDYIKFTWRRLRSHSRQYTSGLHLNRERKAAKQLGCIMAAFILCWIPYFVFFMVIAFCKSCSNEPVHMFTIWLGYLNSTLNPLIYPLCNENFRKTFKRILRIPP

29 compounds from ChEMBL document CHEMBL1147768, “Novel histamine H3 receptor antagonists based on the 4-[(1H-imidazol-4-yl)methyl]piperidine scaffold” (Bioorg Med Chem Lett, 2006) can be followed below.

The structures appear in SMILES notation.

T1 sequence (Q9JI35 whole entry): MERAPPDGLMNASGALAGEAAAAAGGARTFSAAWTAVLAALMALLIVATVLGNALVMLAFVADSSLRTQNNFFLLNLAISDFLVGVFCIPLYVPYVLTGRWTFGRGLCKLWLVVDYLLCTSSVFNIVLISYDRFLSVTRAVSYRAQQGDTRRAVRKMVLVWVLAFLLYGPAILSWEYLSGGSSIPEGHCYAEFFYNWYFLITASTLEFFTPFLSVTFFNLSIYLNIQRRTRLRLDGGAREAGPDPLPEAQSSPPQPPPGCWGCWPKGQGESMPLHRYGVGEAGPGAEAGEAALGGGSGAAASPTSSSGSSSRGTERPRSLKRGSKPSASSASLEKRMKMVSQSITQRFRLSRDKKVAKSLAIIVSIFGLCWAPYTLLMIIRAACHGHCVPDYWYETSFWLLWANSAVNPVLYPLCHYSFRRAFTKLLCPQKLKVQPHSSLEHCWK

Compound `O=C(CCCCN1CCC(Cc2cnc[nH]2)CC1)Nc1ccc(Cl)cc1` returned a Ki in assay [1] of 40 nM. Same read-out and setting: in the case of `O=C(CCC(=O)N1CCC(Cc2c[nH]cn2)CC1)Nc1ccc(Cl)cc1` it was 970 nM. `O=S(=O)(CCCN1CCC(Cc2c[nH]cn2)CC1)c1ccccc1` displayed a Ki in assay [1] of 25 nM. Also, the Kb in assay [2] is 79.4 nM. On the same counts, the results for `O=C(CCN1CCC(Cc2cnc[nH]2)CC1)NC1CCCCC1` are 3 nM and 6.31 nM. In turn, `O=C(NCCCN1CCC(Cc2cnc[nH]2)CC1)c1ccc(Cl)cc1` gave a Ki in assay [1] of 13 nM.

Compound `O=C(CCCc1ccccc1)N1CCC(Cc2cnc[nH]2)CC1` showed a Ki in assay [1] of 9 nM. In assay [2], the Kb is 15.8 nM. On the same counts, the results for `Clc1cccc(OCCCN2CCC(Cc3cnc[nH]3)CC2)c1` are 2 nM and 12.6 nM. Consider `O=C(CCN1CCC(Cc2c[nH]cn2)CC1)Nc1ccc(Cl)cc1`, for which the Ki in assay [3] turned out to be 1.7 nM; in assay [5], 290 nM. The same compound displayed an IC50 in assay [4] of 40 nM. In assay [2], the Kb was 0.0794 nM.

In turn, `O=S(=O)(CCN1CCC(Cc2c[nH]cn2)CC1)Nc1ccc(Cl)cc1` returned a Ki in assay [1] of 170 nM. Regarding `COc1ccc(NC(=O)CCN2CCC(Cc3cnc[nH]3)CC2)cc1`, in assay [1], the Ki came out at 3 nM. The Kb in assay [2] is 1.58 nM. In turn, `COC(=O)c1ccc(OCCC(=O)N2CCC(Cc3c[nH]cn3)CC2)cc1` came in with a Ki in assay [1] of 625 nM. Take `O=C(CCN1CCC(Cc2c[nH]cn2)CC1)Nc1cccc(F)c1`: the Ki was 1.9 nM in assay [3] and 0.2 nM in assay [1]. The compound also came in with an IC50 in assay [4] of 100 nM. In addition, in assay [2], the Kb is 0.126 nM. Take `CN(C(=O)CCN1CCC(Cc2cnc[nH]2)CC1)c1ccc(Cl)cc1`: affinity in assay [1] was put at a Ki of 60 nM. In assay [1], `Clc1cccc(NCCCN2CCC(Cc3cnc[nH]3)CC2)c1` displayed an inhibition constant (Ki) of 2 nM. Also, in assay [2], the Kb is 3.98 nM. On the same counts, the results for `c1ccc(CCCCN2CCC(Cc3cnc[nH]3)CC2)cc1` are 5 nM and 6.31 nM. As to `O=C(CCN1CCC(Cc2c[nH]cn2)CC1)Nc1cccc(Cl)c1`, the affinity in assay [3], expressed as Ki, was 0.4 nM. Also, the Kb in assay [2] was 0.158 nM.

Consider `O=C(CCN1CCC(Cc2c[nH]cn2)CC1)Nc1ccccc1`, for which, in assay [1], the Ki amounted to 2 nM. The Kb in assay [2] was 1.26 nM.

Take `O=C(CCCN1CCC(Cc2cnc[nH]2)CC1)Nc1ccc(Cl)cc1`: the inhibition constant Ki in assay [1] was found to be 17 nM. In addition, the Kb in assay [2] was 5.01 nM.

In the case of `N#Cc1ccc(OCCCN2CCC(Cc3c[nH]cn3)CC2)cc1`, affinity in assay [1] was put at a Ki of 20 nM. Still for that read-out and setting: as for `O=C(CCN1CCC(Cc2c[nH]cn2)CC1)NCc1ccc(Cl)cc1`, the figure is 21 nM; as for `O/N=C/c1ccc(OCCCN2CCC(Cc3c[nH]cn3)CC2)cc1`, 44 nM. Consider `c1ccc(OCCCN2CCC(Cc3c[nH]cn3)CC2)cc1`, for which, in assay [2], the Kb is 5.01 nM.

Regarding `O=C(CCOc1ccccc1)N1CCC(Cc2cnc[nH]2)CC1`, the Kb in assay [2] was 15.8 nM. Still for that read-out and setting: in the case of `CCCCCCCN1CCC(Cc2cnc[nH]2)CC1` it was 2.51 nM. `c1nc(CC2CCNCC2)c[nH]1` [IMMEPIP] displayed a Ki in assay [1] of 0.4 nM. In assay [1], `Clc1ccc(CCCCN2CCC(Cc3cnc[nH]3)CC2)cc1` showed a Ki of 6 nM. In addition, the Kb in assay [2] was 1.58 nM. On the same counts, the results for `O=C(NCCN1CCC(Cc2cnc[nH]2)CC1)c1ccc(Cl)cc1` are 9 nM and 12.6 nM.

Take `COC(=O)c1ccc(NC(=O)CCN2CCC(Cc3cnc[nH]3)CC2)cc1`: the Ki in assay [1] amounted to 3 nM. In addition, the Kb in assay [2] was 1.58 nM. Turning to `CCCCCCC(=O)N1CCC(Cc2c[nH]cn2)CC1`, the Ki in assay [1] was 18 nM. In addition, in assay [2], the Kb is 39.8 nM.
